The text below walks through data of US9546151B2, “VMAT inhibitory compounds” (Oregon Health & Science University, priority 2014, dated 2017).

Where two headings read alike, the source gives them in different places.

In general, melting point refers to the temperature of the solid-liquid transition. The term IC50 denotes the concentration that inhibits the measured activity by half. The term Ki denotes the equilibrium dissociation constant of an inhibitor or competing ligand from its target.

The target of data set [1] is T1, VMAT2 (Homo sapiens, UniProt Q05940). In words: hVMAT2 5HT Uptake. It is filed as biochemical. Further details: expressed in transfected cells; host or cells: HEK (human embryonic kidney) cells. Here is the method:
(§1) Membrane preparation for binding, uptake and release assays using HEK-hVMAT2 cells: Human embryonic kidney cells expressing the human vesicular monoamine transporter 2 (HEK-hVMAT2) were used. HEK-hVMAT2 cells were grown until confluent. The media was removed from plates, solution A [sucrose (0.32 M) with protease inhibitors] was added to the plate, and cells were scraped from plate. Cells were homogenized with 12 strokes of a glass/glass homogenizer. The homogenate was centrifuged at 800×g for 10 min. The supernatant was removed and saved, and the pellet was resuspended, homogenized and centrifuged as above. The supernatants were combined and centrifuged at 10,000×g for 20 min. The pellet was resuspended in solution A (0.75 ml). The membranes were osmotically shocked by addition of 2.625 ml ice cold water and homogenized by 5 strokes of a glass/Teflon homogenizer. The osmolarity was reestablished with addition of Tris (338 μl, 0.25M, pH 7.4 at 4° C.), sodium potassium tartrate (338 μl, 1.0 M), and MgSO4 (4 μl, 0.9M). The homogenate was centrifuged at 20,000×g for 20 min.

The target of data set [2] is T2, human 5HT1A receptor (Homo sapiens, UniProt P08908).
T2 construct: expressed in transfected cells; host or cells: HEK cells (G418 selection)
T2 sequence (P08908 1-422): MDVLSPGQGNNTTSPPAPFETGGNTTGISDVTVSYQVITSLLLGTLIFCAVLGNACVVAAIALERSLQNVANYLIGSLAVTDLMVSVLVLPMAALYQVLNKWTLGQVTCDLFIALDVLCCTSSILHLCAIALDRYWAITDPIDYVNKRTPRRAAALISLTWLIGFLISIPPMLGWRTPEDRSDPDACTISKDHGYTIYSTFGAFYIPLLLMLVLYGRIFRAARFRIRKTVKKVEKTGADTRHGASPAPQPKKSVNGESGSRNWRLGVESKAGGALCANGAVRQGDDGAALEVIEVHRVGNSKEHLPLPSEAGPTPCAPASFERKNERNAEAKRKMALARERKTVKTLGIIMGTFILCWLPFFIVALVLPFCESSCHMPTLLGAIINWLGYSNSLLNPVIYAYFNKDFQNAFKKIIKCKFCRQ
In words: h5HT1A receptors: [3H]8-OH-DPAT binding. As to conditions: read-out: 5-HT1A [^3H] 8—OH DPAT Ki(nM) ± SEM. Here is the method:
Human embryonic kidney cells expressing the human 5HT1A receptor (HEK-h5HT1A) were used. The cells were grown to confluence in DMEM containing 10% FetalClone® (abbreviated as FC—source: HyClone), 0.05% penicillin-streptomycin (pen-strep), and 300 μg/mL of Geneticin (G418). The cells were scraped from 150 mm plates into phosphate-buffered saline and centrifuged at 270×g, 1200 rpm, for 10 minutes. The cell pellet was homogenized in 50 mM Tris-HCl (pH 7.7) with a Polytron, and centrifuged at 27,000×g. […] The final pellet was resuspended at 0.5 mg protein/mL in assay buffer (25 mM Tris-HCl, pH 7.4, containing 100 μM ascorbic acid and 10 μM pargyline). The assay was performed in duplicate in a 96-well plate. Serial dilutions of test compounds were made using the Biomek 2000 robotics system. […] Nonspecific binding was determined with 1.0 μM dihydroergotamine. The plates were incubated at room temperature for 60 minutes and then filtered through polyethylenimine-soaked (0.05%) “A” filtermats on a Tomtec cell harvester. The filters were washed with cold 50 mM Tris buffer (pH 7.7) for 6 sec, dried, spotted with scintillation cocktail, and counted for 2 minutes after a 4 hour delay on a Wallac Betaplate 1205 liquid scintillation counter.

For data set [3], the target named is T1, VMAT2. The data set is described as follows: hVMAT2 [3H]DTBZ ([3H]DHTB) binding assay. Details: expressed in transfected cells; host or cells: HEK (human embryonic kidney) cells. Here is the method: as §1
Binding was terminated by filtration over Whatman GF/C filters using a Tomtec 96-well cell harvester. Filters were washed for six seconds with ice-cold saline. Scintillation fluid was added to each square and radioactivity remaining on the filters was determined using a Wallac μ- or beta-plate reader. Specific binding was defined as the difference in binding observed in the presence and absence of Ro4-1284 (10 μM, generously supplied by Hoffman LaRoche). Three or more independent competition experiments were conducted with duplicate determinations.

In data set [4] the target is T3, human 5HT2A receptor (Homo sapiens, UniProt P28223).
T3 construct: expressed in transfected cells; host or cells: HEK cells
T3 sequence (P28223 whole entry): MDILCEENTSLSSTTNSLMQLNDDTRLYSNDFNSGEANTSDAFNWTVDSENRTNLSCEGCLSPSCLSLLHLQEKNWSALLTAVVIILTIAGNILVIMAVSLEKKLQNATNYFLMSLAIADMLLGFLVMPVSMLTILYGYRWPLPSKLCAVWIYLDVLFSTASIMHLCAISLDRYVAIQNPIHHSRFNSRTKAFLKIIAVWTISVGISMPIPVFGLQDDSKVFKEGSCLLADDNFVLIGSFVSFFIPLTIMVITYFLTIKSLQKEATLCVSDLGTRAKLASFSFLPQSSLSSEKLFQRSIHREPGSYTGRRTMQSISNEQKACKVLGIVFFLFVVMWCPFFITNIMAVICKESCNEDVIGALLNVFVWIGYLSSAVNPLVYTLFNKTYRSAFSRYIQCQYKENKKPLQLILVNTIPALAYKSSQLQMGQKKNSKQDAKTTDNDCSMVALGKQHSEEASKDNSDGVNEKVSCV
The data set is described as follows: h5HT2A receptors: [125I]DOI binding. On the procedure:
Method: Human embryonic kidney cells expressing the human 5HT2A receptor (HEK-h5HT2A) or human 5HT2C receptor (HEK-h5HT2C) were used. The cells were grown until confluent on 15 cm plates. Media was removed, cells were washed with phosphate-buffered saline (PBS), scraped into 2 ml PBS and frozen at −20° C. until needed. Cell suspension was thawed, 10 ml assay buffer (50 mM Tris, pH 7.4 at 37° C., with 0.1% ascorbic acid and 5 mM CaCl2) was added per plate of cells, and polytronned at setting 6 for 5 sec. The homogenate was centrifuged at 15,500 rpm for 20 min. […] The final pellet was resuspended in 2 ml buffer/plate of cells.
The reaction was incubated for 1 hour at 37° C., and terminated by filtration through Wallac A filtermats presoaked in 0.05% polyethylenimine using a Tomtec 96-well harvester. Radioactivity remaining on filters was counted in a Wallac betaplate reader. IC50 values were calculated using GraphPad Prism. IC50 values were converted using the Cheng-Prusoff equation.

Where [5] appears, read: cells printed in μM under a head in nM.
The mark [6] stands for this setting: HEK-h5HT2A homogenate, read-out: 5-HT2A [^125I]DOI Ki (nM) ± SEM.
The mark [7] stands for this setting: [^3H]5HT uptake, HEK-hVMAT2 preparation, read-out: hVMAT2 5HT Uptake IC50 (nM) ± SEM.
Where [8] appears, read: cells printed in μM under a head in nM, read-out: 5-HT2A [^125I]DOI Ki (nM) ± SEM.
Where [9] appears, read: cells printed in μM under a head in nM, HEK-hVMAT2 membranes.
The mark [10] stands for this setting: cells printed in μM under a head in nM, read-out: hVMAT2 5HT Uptake IC50 (nM) ± SEM.

T1 sequence (Q05940 whole entry): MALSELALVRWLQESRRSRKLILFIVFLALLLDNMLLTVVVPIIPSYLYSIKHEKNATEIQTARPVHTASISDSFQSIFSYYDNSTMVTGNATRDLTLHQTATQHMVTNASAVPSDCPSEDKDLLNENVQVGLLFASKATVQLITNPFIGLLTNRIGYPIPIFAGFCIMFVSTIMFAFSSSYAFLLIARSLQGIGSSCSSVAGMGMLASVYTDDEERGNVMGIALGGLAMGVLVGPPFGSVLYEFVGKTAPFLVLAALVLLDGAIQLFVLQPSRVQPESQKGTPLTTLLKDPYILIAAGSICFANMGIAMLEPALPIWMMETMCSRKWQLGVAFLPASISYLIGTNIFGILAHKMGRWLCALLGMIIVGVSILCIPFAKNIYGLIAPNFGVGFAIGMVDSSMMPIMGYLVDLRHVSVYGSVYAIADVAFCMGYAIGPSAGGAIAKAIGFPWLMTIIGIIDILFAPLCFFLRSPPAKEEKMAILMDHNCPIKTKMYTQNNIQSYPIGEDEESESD

In turn, `CCOC(=O)[C@H]1CN(CCCn2c(=O)[nH]c3ccccc3c2=O)CC[C@H]1c1ccc(F)cc1` (racemic) [n=2, (±)-syn-Ethyl 1-(3-(2,4-dioxo-1,2-dihydroquinazolin-3(4H)-yl)propyl)-4-(4-fluorophenyl)piperidine-3-carboxylate] gave a melting point of 171.8 to 172.4 °C. Besides, in data set [1], the IC50 was found to be 43 ± 4 nM. Moreover, in data set [2] (setting [5]), the Ki was greater than 10 µM. The compound further yielded a Ki in data set [3] greater than 10 µM.
Consider `CCOC(=O)[C@@H]1CN(CCn2c(=O)[nH]c3ccccc3c2=O)CC[C@@H]1c1ccccc1` (racemic) [Compound 5a, (±) syn-ethyl 1-(2-(2,4-dioxo-1,2-dihydroquinazolin-3(4H)-yl)ethyl)-4-phenylpiperidine-3-carboxylate], for which the figures for the Ki in data set [4] (setting [6]), in data set [2] (setting [5]) and in data set [3] were 37.3 ± 8.5 nM, greater than 10 µM and 1.17 ± 0.314 µM, respectively. Also, the IC50 in data set [1] (setting [7]) was 17 nM.
In the case of `CCOC(=O)[C@@H]1CN(CCn2c(=O)[nH]c3ccccc3c2=O)CC[C@@H]1c1ccc(C(F)(F)F)cc1` (racemic) [Compound 5f, (±) syn-ethyl 1-(2-(2,4-dioxo-1,2-dihydroquinazolin-3(4H)-yl)ethyl)-4-(4-(trifluoromethyl)phenyl)piperidine-3-carboxylate], the Ki in data set [4] (setting [8]) was greater than 10000 nM; in data set [2] (setting [5]), greater than 10 µM; in data set [3] (setting [9]), greater than 10 µM. Moreover, the IC50 in data set [1] (setting [7]) was determined as 416 ± 43 nM.
`CCOC(=O)[C@@H]1CN(CCn2c(=O)[nH]c3ccccc3c2=O)CC[C@@H]1c1cccc(C(F)(F)F)c1` (racemic) [Compound 5g, (±) syn-ethyl 1-(2-(2,4-dioxo-1,2-dihydroquinazolin-3(4H)-yl)ethyl)-4-(3-(trifluoromethyl)phenyl)piperidine-3-carboxylate]: the Ki was greater than 10000 nM in data set [4] (setting [8]), greater than 10 µM in data set [2] (setting [5]) and greater than 10 µM in data set [3] (setting [9]). In data set [1] (setting [7]), the IC50 turned out to be 166 ± 6 nM.
Regarding `CCOC(=O)C1=C(c2ccccc2)CCN(CCn2c(=O)[nH]c3ccccc3c2=O)C1` [R1=CO2-Et, 3,4-bond=ene], the Ki in data set [4] is 81 ± 26 nM; in data set [2] (HEK-h5HT1A homogenate) it was greater than 0.0063 µM; in data set [3] (read-out: hVMAT2 [^3H]DTBZ Ki (nM) ± SEM), 0.874 ± 0.276 µM. Besides, the IC50 in data set [1] is 66 ± 15 nM.
For `CCOC(=O)c1ccc([C@H]2CCN(CCn3c(=O)[nH]c4ccccc4c3=O)C[C@H]2C(=O)OCC)cc1` (racemic) [Compound 5l, (±) syn-ethyl 1-(2-(2,4-dioxo-1,2-dihydroquinazolin-3(4H)-yl)ethyl)-4-(4-(ethoxycarbonyl)phenyl)piperidine-3-carboxylate], the Ki in data set [4] (setting [8]) was greater than 10000 nM; in data set [2] (setting [5]), greater than 10 µM.
`CC1CN(CCn2c(=O)[nH]c3ccccc3c2=O)CCC1C(=O)c1ccc(F)cc1` (racemic) [R1=H, R2=α/β-CH3]: the Ki in data set [4] (setting [6]) is 45.9 ± 12.4 nM; in data set [2] (setting [5]), greater than 10 µM; in data set [3] (HEK-hVMAT2 membranes, series 5 ligands tested as hydrochloride salts), 0.276 ± 0.024 µM. For the same compound, in data set [1] (setting [7]), the IC50 amounted to 333 ± 106 nM.
As to `CC1CN(CCn2c(=O)[nH]c3ccccc3c2=O)CCC1C(=O)c1ccc(F)cc1` (single isomer, unassigned) [R1=H, R2=α-CH3], the Ki in data set [4] (setting [6]) is 19.8 ± 5.8 nM; in data set [2] (setting [5]), greater than 5 µM; in data set [3] (setting [9]), greater than 6.4 µM. Besides, in data set [1] (setting [10]), the IC50 was greater than 7300 nM.
For the compound `CCOC(=O)[C@@H]1CN(CCn2c(=O)[nH]c3ccccc3c2=O)CC[C@@H]1c1ccc(C)cc1` (racemic) [Compound 5b, (±) syn-ethyl 1-(2-(2,4-dioxo-1,2-dihydroquinazolin-3(4H)-yl)ethyl)-4-(p-tolyl)piperidine-3-carboxylate], the Ki was greater than 10000 nM in data set [4] (setting [8]), greater than 10 µM in data set [2] (setting [5]) and greater than 9 µM in data set [3] (setting [9]). Besides, the IC50 in data set [1] (setting [7]) is 313 ± 54 nM.
In the case of `CCOC(=O)[C@@H]1CN(CCn2c(=O)[nH]c3ccccc3c2=O)CC[C@@H]1c1ccc(F)cc1` (racemic) [Compound 5d, (±) syn-ethyl 1-(2-(2,4-dioxo-1,2-dihydroquinazolin-3(4H)-yl)ethyl)-4-(4-fluorophenyl)piperidine-3-carboxylate], the Ki was greater than 2000 nM in data set [4] (setting [8]) and greater than 9 µM in data set [2] (setting [5]).
As to `O=C(c1ccc(F)cc1)C1CCN(CCn2c(=O)[nH]c3ccc(Br)cc3c2=O)CC1` [R1=Br, R2=H], the Ki in data set [4] (setting [6]) was 0.8 ± 0.24 nM; in data set [2] (setting [5]), greater than 2 µM; in data set [3] (setting [9]), greater than 3 µM. Besides, the IC50 in data set [1] (setting [10]) was greater than 2000 nM.
Regarding `CCOC(=O)[C@@H]1CN(CCn2c(=O)[nH]c3sccc3c2=O)CC[C@@H]1c1ccc(F)cc1` (racemic) [Compound 7a, (±) syn-ethyl 1-(2-(2,4-dioxo-1,2-dihydrothieno[2,3-d]pyrimidin-3(4H)-yl)ethyl)-4-(4-fluorophenyl)piperidine-3-carboxylate], the melting point is 198.8 to 201.4 °C. In addition, the IC50 in data set [1] (setting [7]) amounted to 133 ± 20 nM. In data set [3] (setting [9]), the Ki was greater than 10 µM.
Turning to `CCOC(=O)[C@@H]1CN(CCn2c(=O)[nH]c3ccccc3c2=O)CC[C@@H]1c1cccc(F)c1` (racemic) [Compound 5e], the melting point lay within 170.6 to 171.4 °C. Besides, in data set [1] (setting [7]), the IC50 came to 63 ± 10 nM. The Ki in data set [3] (setting [9]) was greater than 10 µM.
On the same counts, the results for `CCOC(=O)[C@H]1CN(CCn2c(=O)[nH]c3ccccc3c2=O)CC[C@H]1c1ccccc1F` (racemic) [Compound 5x, (±)-syn-Ethyl 1-(2-(2,4-dioxo-1,2-dihydroquinazolin-3(4H)-yl)ethyl)-4-(2-fluorophenyl)piperidine-3-carboxylate] are 182.8 to 183.6 °C, 28 ± 12 nM and greater than 10 µM.
`CCOC(=O)[C@@H]1CN(CCn2c(=O)c3ccccc3n(C)c2=O)CC[C@@H]1c1cccc(F)c1` (racemic) [Compound 6d, (±)-syn Ethyl 4-(3-fluorophenyl)-1-(2-(1-methyl-2,4-dioxo-1,2-dihydroquinazolin-3(4H)-yl)ethyl)piperidine-3-carboxylate] showed a melting point of 101.2 to 102.5 °C. Also, the IC50 in data set [1] (setting [7]) was 89 ± 12 nM. Also, in data set [2] (setting [5]), the Ki was greater than 10 µM. In addition, the Ki in data set [3] (setting [9]) was greater than 9 µM.
